Test results reported in ChEMBL document CHEMBL1201862, “PubChem BioAssay data set” (2004).
The source made the active and inactive calls.

Key:
[1] = HEp-2 cell cytotoxicity, dose response, cytotoxicity control for RSV inhibitor project, HTS (AID 2410); type: functional; conditions: human respiratory syncytial virus
[2] = Luminescence Cell-Based Dose Confirmation HTS to Identify Activators of 5'UTR Stem-Loop Driven Alpha-Synuclein mRNA Translation in H4 Neuroglioblastoma Cells. [Related pubchem assays: 1829 (Project Summary), 1814 (Primary HTS)]; type: functional
[3] = tested on: H4; test: Luminescence Cell-Based Dose Response HTS to Identify Activators of 5'UTR Stem-Loop Driven Prion Protein mRNA Translation in H4 Neuroglioblastoma Cells. [Related pubchem assays: 1829 (Project Summary), 1814 (Primary HTS)]; type: functional; conditions: Homo sapiens
[4] = Luminescence Cell-Based Dose Response HTS to Identify Activators of Luciferase Translation or Activity in H4 […] Cells. [Related pubchem assays: 1829 (Project Summary), 1814 (Primary HTS)]; type: functional
[5] = biological target: T1, Zinc finger protein mex-5 (Caenorhabditis elegans, UniProt Q9XUB2); test: MEX-5/TCR-2 RNA interaction inhibitors, dose response, biochemical, C. elegans, fluorescence polarization (AID 1960)
T1 sequence (Q9XUB2 whole entry): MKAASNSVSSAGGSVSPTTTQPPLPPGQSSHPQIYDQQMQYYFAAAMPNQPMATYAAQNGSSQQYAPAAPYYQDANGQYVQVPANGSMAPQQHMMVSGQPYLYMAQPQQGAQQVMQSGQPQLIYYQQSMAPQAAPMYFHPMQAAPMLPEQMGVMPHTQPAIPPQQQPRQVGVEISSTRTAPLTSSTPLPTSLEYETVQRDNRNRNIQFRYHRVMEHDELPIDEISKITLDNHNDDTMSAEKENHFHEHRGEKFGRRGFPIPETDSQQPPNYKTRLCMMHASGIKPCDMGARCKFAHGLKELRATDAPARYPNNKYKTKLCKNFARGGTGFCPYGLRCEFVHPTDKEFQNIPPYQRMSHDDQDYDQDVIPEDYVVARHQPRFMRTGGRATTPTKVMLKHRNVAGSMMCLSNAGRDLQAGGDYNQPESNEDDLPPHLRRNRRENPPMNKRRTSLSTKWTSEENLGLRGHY

[6] = biological target: T2, RNA-binding protein pos-1 (Caenorhabditis elegans, UniProt G5EF15); test: inhibitors of POS-1/mex-3 RNA binding, dose response, biochemical, fluorescence polarization (AID 1964);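 also: purified POS-1 fused to maltose binding protein made in E. coli; potency of compounds blocking POS-1 binding to fluorescent RNA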
T2 sequence (G5EF15 whole entry): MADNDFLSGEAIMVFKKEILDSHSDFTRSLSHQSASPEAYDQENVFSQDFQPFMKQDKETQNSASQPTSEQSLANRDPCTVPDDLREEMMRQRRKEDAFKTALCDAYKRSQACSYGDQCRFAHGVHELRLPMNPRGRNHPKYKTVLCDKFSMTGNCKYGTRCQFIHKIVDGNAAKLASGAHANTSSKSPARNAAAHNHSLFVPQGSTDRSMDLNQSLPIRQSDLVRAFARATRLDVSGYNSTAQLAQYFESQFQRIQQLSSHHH

[7] = tested on: INS1; test: beta cell apoptosis inhibitors, cytokine rescue, dose response, luminescence, retest (AID 449756); type: functional, cell-based; conditions: Rattus norvegicus;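 also: cell death triggered by IL-1 beta plus TNF-alpha plus IFN-gamma mixture; protective hits raise ATP signal compared with cytokine alone wells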
[8] = biological target: T3, Protein RecA (Mycobacterium tuberculosis, UniProt P9WHJ3); test: Fluorescence Cell-Free Homogeneous Dose Retest to Identify Inhibitors of RecA-Intein Splicing Activity. [Related pubchem assays (depositor defined):AID2097, AID2223, AID489010, AID492950]; type: functional
T3 sequence (P9WHJ3 whole entry): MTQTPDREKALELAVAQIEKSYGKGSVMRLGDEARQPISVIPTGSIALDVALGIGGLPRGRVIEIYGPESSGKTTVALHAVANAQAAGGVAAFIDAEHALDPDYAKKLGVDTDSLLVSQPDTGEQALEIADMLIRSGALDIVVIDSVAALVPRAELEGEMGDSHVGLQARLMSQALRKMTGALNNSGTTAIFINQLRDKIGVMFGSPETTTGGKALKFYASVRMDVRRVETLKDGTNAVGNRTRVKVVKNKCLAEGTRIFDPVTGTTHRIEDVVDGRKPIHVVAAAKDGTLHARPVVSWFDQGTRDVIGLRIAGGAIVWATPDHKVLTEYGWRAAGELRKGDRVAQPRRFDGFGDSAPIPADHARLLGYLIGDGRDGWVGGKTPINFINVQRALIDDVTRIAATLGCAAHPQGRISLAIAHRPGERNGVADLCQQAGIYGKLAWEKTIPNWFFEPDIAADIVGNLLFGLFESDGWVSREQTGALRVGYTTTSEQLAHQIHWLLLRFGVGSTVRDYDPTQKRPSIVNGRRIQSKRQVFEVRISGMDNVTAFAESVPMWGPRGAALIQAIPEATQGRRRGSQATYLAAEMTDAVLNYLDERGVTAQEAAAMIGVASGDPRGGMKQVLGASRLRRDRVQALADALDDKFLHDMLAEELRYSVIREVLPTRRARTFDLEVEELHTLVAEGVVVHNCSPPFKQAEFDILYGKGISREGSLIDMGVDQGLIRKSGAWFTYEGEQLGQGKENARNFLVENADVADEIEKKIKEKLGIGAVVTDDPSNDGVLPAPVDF

[9] = biological target: T4, Replicative DNA helicase DnaB (Mycobacterium tuberculosis, UniProt P9WMR3); test: DnaB intein splicing inhibitors, dose response, biochemical, cell-free fluorescence (AID 449749); type: functional
T4 sequence (P9WMR3 whole entry): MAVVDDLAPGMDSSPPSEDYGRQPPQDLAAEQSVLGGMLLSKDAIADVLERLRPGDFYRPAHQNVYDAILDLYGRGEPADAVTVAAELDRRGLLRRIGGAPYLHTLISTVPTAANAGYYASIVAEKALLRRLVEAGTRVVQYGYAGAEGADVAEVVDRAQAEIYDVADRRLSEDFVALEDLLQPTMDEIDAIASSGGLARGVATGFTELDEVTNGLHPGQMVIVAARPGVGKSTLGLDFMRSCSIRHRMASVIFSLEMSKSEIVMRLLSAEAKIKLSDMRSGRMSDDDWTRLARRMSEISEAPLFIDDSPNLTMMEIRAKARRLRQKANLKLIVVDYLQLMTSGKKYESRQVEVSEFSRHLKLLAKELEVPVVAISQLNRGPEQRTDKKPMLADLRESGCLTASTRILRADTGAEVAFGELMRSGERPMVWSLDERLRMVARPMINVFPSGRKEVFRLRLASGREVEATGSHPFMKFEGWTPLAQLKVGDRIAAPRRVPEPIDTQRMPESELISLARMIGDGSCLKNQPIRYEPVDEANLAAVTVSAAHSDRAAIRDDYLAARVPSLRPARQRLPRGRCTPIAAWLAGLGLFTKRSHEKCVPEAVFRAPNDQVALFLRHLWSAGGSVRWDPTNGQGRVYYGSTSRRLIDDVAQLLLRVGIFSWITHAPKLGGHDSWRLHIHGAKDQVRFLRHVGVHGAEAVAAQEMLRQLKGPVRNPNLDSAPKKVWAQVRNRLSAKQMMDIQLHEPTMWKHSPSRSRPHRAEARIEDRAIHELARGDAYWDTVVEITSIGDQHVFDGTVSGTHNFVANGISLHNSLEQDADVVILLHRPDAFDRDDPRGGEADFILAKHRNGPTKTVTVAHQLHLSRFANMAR

[10] = cytotoxicity toward NIH3T3 fibroblasts, dose response, counter-screen, cell-based, ATP luminescence, mouse fibroblasts (AID 2010); type: functional;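 also: cells exposed to compound for about 90 hours before reading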
[11] = inhibitors of intracellular T. cruzi replication, confirmation, NIH3T3 host cells, beta-gal luminescence (AID 2044); type: functional, cell-based;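 also: intracellular parasites grown in NIH/3T3 mouse fibroblasts as host cells; luminescent beta-galactosidase reporter signal from transgenic T. cruzi replicating inside host cells; inhibitors lower the luminescence signal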
[12] = biological target: Cytochrome P450 3A4 (Homo sapiens, UniProt P08684);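 also: CYP3A4 tested as one member of a cytochrome P450 panel screen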
Sequence of Cytochrome P450 3A4 (P08684 whole entry): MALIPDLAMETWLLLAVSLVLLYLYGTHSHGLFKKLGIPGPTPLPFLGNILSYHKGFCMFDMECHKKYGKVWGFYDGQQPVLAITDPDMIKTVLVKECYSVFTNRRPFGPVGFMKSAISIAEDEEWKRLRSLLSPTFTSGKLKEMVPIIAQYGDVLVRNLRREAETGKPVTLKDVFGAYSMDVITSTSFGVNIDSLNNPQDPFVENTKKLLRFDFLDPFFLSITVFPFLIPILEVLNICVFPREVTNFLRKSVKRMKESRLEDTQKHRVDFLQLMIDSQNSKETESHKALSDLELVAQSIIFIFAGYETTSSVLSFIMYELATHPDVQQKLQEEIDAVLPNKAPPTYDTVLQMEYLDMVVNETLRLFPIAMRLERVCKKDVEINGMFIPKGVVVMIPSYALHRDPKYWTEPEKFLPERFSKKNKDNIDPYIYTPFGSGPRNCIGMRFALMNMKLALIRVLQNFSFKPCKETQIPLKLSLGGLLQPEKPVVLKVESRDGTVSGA

[13] = biological target: T5, Cytochrome P450 1A2 (Homo sapiens, UniProt P05177);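 also: PubChem cytochrome P450 panel assay, CYP1A2 panel member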
T5 sequence (P05177 whole entry): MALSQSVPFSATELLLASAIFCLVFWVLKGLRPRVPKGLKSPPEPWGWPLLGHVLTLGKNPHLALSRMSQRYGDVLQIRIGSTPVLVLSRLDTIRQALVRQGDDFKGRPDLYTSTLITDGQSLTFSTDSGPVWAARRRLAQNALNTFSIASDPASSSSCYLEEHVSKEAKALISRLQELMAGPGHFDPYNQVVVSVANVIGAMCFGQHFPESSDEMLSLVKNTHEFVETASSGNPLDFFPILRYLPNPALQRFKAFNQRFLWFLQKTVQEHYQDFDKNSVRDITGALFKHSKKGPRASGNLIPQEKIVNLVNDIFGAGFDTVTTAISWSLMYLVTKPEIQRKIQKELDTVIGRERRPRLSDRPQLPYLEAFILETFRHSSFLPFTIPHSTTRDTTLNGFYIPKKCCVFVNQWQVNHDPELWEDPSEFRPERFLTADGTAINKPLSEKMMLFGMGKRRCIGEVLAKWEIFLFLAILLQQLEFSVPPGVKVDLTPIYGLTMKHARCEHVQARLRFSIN

[14] = biological target: Cytochrome P450 2C19 (Homo sapiens, UniProt P33261); test: Cytochrome panel assay with activity outcomes. Panel member name: p450-cyp2c19 Compounds with AC50 equal or less than 10 uM are considered active; type: functional; conditions: read-out: AC50
Sequence of Cytochrome P450 2C19 (P33261 whole entry): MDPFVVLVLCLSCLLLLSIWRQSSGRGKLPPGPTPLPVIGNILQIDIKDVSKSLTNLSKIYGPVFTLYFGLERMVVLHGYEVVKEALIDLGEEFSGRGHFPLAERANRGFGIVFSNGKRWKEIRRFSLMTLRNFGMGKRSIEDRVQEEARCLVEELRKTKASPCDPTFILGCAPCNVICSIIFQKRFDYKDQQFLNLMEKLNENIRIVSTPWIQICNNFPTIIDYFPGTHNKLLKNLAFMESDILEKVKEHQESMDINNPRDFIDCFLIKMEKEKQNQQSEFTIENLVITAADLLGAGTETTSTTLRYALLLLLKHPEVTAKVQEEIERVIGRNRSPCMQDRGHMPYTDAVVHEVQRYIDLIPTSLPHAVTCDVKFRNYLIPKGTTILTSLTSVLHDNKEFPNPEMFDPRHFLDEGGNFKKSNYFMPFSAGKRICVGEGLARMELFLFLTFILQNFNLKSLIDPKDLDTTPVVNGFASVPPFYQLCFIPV

With `CN1C/C(=C\c2ccc(N3CCOCC3)cc2)C(=O)/C(=C/c2ccc(N3CCOCC3)cc2)C1` the CC50 [1] was 22.8 µM (active), the EC50 [2] was 23.7 µM (active) and the EC50 [3] was > 120 µM (not active). For the same molecule, the EC50 [4] was 48.1 µM (active).
For `COc1cccc(C2c3c(oc4ccccc4c3=O)C(=O)N2Cc2ccco2)c1` (centres undefined), the EC50 [5] was 150 µM (active), the EC50 [2] was 1.7 µM (active) and the EC50 [6] was 36.3 µM (active). The EC50 [3] was 68 µM (active) and the EC50 [4] was 55.4 µM (active).
With `C=CCn1cccc(C(=O)Nc2ccc(SC)cc2)c1=O` the EC50 [2] was 0.229 µM (active), the EC50 [3] was 9.44 µM (active) and the EC50 [4] was 0.188 µM (active).
In the case of `Cc1nc(C(=O)Nc2ccccc2)sc1C1(C)CC(c2cccnc2)=NO1` (centres undefined), the EC50 [2] is reported as 10.1 µM (active), the EC50 [3] is reported as 11.9 µM (active) and the EC50 [4] is reported as 30.4 µM (active).
In the case of `Nc1nn(-c2ccccc2)nc1C(=O)OCc1ccccc1`, the EC50 [2] is reported as > 120 µM (not active), the EC50 [3] is reported as 25.2 µM (active) and the EC50 [4] is reported as 13.7 µM (active).
In the case of `c1ccc2c(-c3nc(-c4ccncc4)no3)cccc2c1`, the EC50 [2] is reported as 0.841 µM (active), the EC50 [3] is reported as 51.4 µM (active) and the EC50 [4] is reported as > 120 µM (not active).
For `CC(C)c1ccc(NC(S)=NN2CCOCC2)cc1`, the EC50 [2] was 18.4 µM (active), the EC50 [3] was 22.2 µM (active) and the EC50 [4] was 17.4 µM (active).
In the case of `COc1ccccc1N=C(S)NNC(=O)c1ccc(Cl)cc1Cl`, the EC50 [2] is reported as 10.9 µM (active), the EC50 [3] is reported as 61.7 µM (active) and the EC50 [4] is reported as 31.8 µM (active).
For `N#Cc1ccc(-c2ccc(Cl)cc2)nc1SCC(=O)c1cccc(Cl)c1`, the EC50 [2] was > 120 µM (not active), the AC50 [7] was 3.9 µM (active) and the EC50 [3] was > 120 µM (not active). For the same molecule, the EC50 [4] was > 120 µM (not active).
For `Cc1ccccc1OCc1nc(-c2ccc(NC(=O)c3cccs3)cc2)no1`, the EC50 [2] was 23.8 µM (active), the EC50 [3] was 1.46 µM (active) and the EC50 [4] was 28.5 µM (active).
With `COc1ccc(CN(C(=O)CSc2nnc(-c3ccccc3C)o2)c2ccc(F)cc2)cc1` the CC50 [1] was 29.4 µM (active), the EC50 [8] was 8.86 µM (active) and the AC50 [9] was 1.42 µM (active).
In the case of `CC(C)c1cc(C(N)=O)c(NC(=O)c2cccc(COc3ccc(Br)cc3)c2)s1`, the EC50 [5] is reported as > 300 µM (not active), the EC50 [10] is reported as > 30 µM (not active) and the EC50 [2] is reported as 11.3 µM (active). For the same molecule, the EC50 [11] was 1.87 µM (active), the EC50 [6] was > 300 µM (not active) and the EC50 [3] was 0.366 µM (active). The EC50 [4] was 41.9 µM (active).
For `Cn1cc(/C=C(\NC(=O)c2ccccc2Cl)C(=O)NCCN2CCOCC2)c2ccccc21`, the EC50 [2] was > 120 µM (not active), the EC50 [3] was > 120 µM (not active) and the EC50 [4] was > 120 µM (not active).
In the case of `Cc1cccc(OCC2=NS(=O)(=O)c3ccccc3N2)c1`, the EC50 [2] is reported as > 120 µM (not active), the EC50 [3] is reported as > 120 µM (not active) and the EC50 [4] is reported as 9.74 µM (active).
For `CC(C)(C)c1ccc(OCc2ccc(C(=O)NCc3cccnc3)o2)cc1`, the EC50 [2] was 6.24 µM (active), the EC50 [3] was > 120 µM (not active) and the EC50 [4] was 5.94 µM (active).
With `Cc1c(OCC(=O)NCc2cccnc2)ccc2c3c(c(=O)oc12)CCC3` the EC50 [2] was > 120 µM (not active), the EC50 [3] was 15.4 µM (active) and the EC50 [4] was > 120 µM (not active).
With `Cc1cc(CNC(=O)c2ccc3nc(Cc4ccccc4F)oc3c2)nn1C` the EC50 [2] was 0.3 µM (active), the EC50 [3] was 7.51 µM (active) and the EC50 [4] was 58.7 µM (active).
With `CCOC(=O)c1c(C)[nH]c(/C=N/c2ccc(OC)cc2)c1O` the EC50 [2] was 16.5 µM (active), the EC50 [3] was 4.53 µM (active) and the EC50 [4] was 46.9 µM (active).
With `C(=N\C(/N=C/c1ccco1)c1ccco1)/c1ccco1` the EC50 [2] was 28.9 µM (active), the EC50 [3] was > 120 µM (not active) and the EC50 [4] was > 120 µM (not active).
In the case of `C/C(=N\n1nnnc1Nc1ccccc1)c1ccc(N)cc1`, the AC50 [12] is reported as 22.4 µM (inconclusive), the AC50 [13] is reported as 12.6 µM (inconclusive) and the EC50 [2] is reported as > 120 µM (not active). For the same molecule, the AC50 [14] was 3.55 µM (inconclusive), the EC50 [3] was > 120 µM (not active) and the EC50 [4] was > 120 µM (not active).
With `COc1ccc(S(=O)(=O)n2ccc(-c3ccc4c(c3)CCC(C)(C)O4)n2)cc1` the EC50 [2] was > 120 µM (not active), the EC50 [3] was 43.4 µM (active) and the EC50 [4] was 17.2 µM (active).
